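Results reflect a 48-hour exposure of cells in 96-well plates to compound at five concentrations. GI50 = concentration required for 50% inhibition of growth. TGI: total growth inhibition.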
Key:
Experiment in all cases: NCI-60 cell line screen, 48 h
TK-10 renal = test system: TK-10 renal
UACC-62 melanoma = test system: UACC-62 melanoma
RPMI-8226 leukemia = test system: RPMI-8226 leukemia
CAKI-1 renal = test system: CAKI-1 renal
SF-539 CNS = test system: SF-539 CNS
786-0 renal = test system: 786-0 renal
A498 renal = test system: A498 renal
SN12C renal = test system: SN12C renal
CCRF-CEM leukemia = test system: CCRF-CEM leukemia
UACC-257 melanoma = test system: UACC-257 melanoma

Compound | GI50 (TK-10 renal) [µM] | TGI (TK-10 renal) [µM] | GI50 (UACC-62 melanoma) [µM] | TGI (UACC-62 melanoma) [µM] | GI50 (RPMI-8226 leukemia) [µM] | TGI (RPMI-8226 leukemia) [µM] | GI50 (CAKI-1 renal) [µM] | TGI (CAKI-1 renal) [µM] | GI50 (SF-539 CNS) [µM] | TGI (SF-539 CNS) [µM] | GI50 (786-0 renal) [µM] | TGI (786-0 renal) [µM] | GI50 (A498 renal) [µM] | TGI (A498 renal) [µM] | GI50 (SN12C renal) [µM] | TGI (SN12C renal) [µM] | GI50 (CCRF-CEM leukemia) [µM] | TGI (CCRF-CEM leukemia) [µM] | GI50 (UACC-257 melanoma) [µM] | TGI (UACC-257 melanoma) [µM]
COc1cc(OC2OC(C)C(O)C(O)C2O)cc2oc(-c3ccc(O)cc3)c(CC=C(C)C)c(=O)c12 (centres undefined) | 25 | 64.7 | 12.8 | 31.9 | 9.02 | 26.6 | 14.1 | 40.7 | 19.5 | 44.2 | 11.7 | 60 | 29.8 | 84.2 | 12.3 | 45.3 | 5.97 | 31.8 | 29.6 | 68.4
Oc1ccc(N=Nc2ccc(Cl)cc2)cc1 |  | 33.8 |  | 36.4 |  | 80.4 |  | 36.6 |  | 36.7 |  | 31.5 |  | 41 |  | 31.2 |  | > 100 |  | 31.5
CC(=O)NC(CCCCNC(=O)OCc1ccccc1)C(=O)NCc1ccccc1 (centres undefined) |  | > 100 |  | > 100 |  | > 100 |  | > 100 |  | > 100 |  | > 100 |  | > 100 |  | > 100 |  | > 100 |  | > 100
COc1cc(/C=C/c2cc(C(F)(F)F)[nH]c(=O)n2)ccc1OCc1ccccc1F | 18 | 39.1 | 7.57 | 21.6 | 3.85 | 27.1 | 11.3 | 42.3 | 3.68 | 13.8 | 16.2 | 33.1 | 1.73 | 8.6 | 7.04 | 32.6 | 3.94 | 26.3 | 7.51 | 31.3
O=C(Nc1ccccc1)c1ccc(Cl)c([N+](=O)[O-])c1 |  | > 100 |  | 24.9 |  | 37.6 |  | 40.4 |  | 60.5 |  | 20.8 |  | 63.9 |  | 79.4 |  | 28.7 |  | 48.4
CN(C(=O)c1ccc(Cl)s1)C(=S)N(C)C(=O)c1ccc(Cl)s1 |  | > 10 |  | > 10 |  | > 10 |  | > 10 |  | > 10 |  | > 10 |  | > 10 |  | > 10 |  | > 10 |  | > 10
COc1cc(OC)c(/C=C/c2ccc3ccccc3[n+]2C)c(OC)c1 | 1.91 | 6.93 | 1.13 | 3.08 | 0.281 | 2.24 | 8.55 | > 49.2 | 0.422 | 5.78 | 3.16 | 16.8 | 0.535 | 5.42 | 0.36 | 16.9 | 0.697 | 6.49 | 0.49 | 3.19
O=[N+]([O-])c1ccc2[nH]cc(-c3c4ccsc4cc4[nH]c5ccc([N+](=O)[O-])cc5c34)c2c1 | 2.85 | 18.5 | 0.641 | 8.01 | 1.04 | 5.1 | 0.758 | 9.94 | 0.697 | 1.91 | 0.877 | 3.52 | 0.726 | 3.13 | 1.43 | 11.4 | 1.05 | 23.3 | 2.92 | 10.5
O=C(O)C1CCc2ccc3ccccc3c2C1c1cccc2ccccc12 (centres undefined) |  | > 100 |  | 29.4 |  | > 100 |  | > 100 |  | 49.8 |  | 38.2 |  | 67.2 |  | 59.3 |  | 50.7 |  | 59.4
CC1CC(c2ccccc2)=Nc2ccccc2S1(=O)=O (centres undefined) |  | 47.7 |  | 55.7 |  | 5.59 |  | 48.5 |  | 34.1 |  | 30.9 |  | 28.2 |  | 34.3 |  | 43.4 |  | 23.8
O=C(Nc1ccccc1C(F)(F)F)c1cccc(NC2=C(Cl)C(=O)N(Cc3ccccc3)C2=O)c1 | 6.85 | 37.2 | 9.46 | 52.7 | 13.1 | > 100 | 21.1 | > 67.2 | 12.1 | 34.8 | 12.4 | > 40.1 | 11.3 | 37 | 7.49 | > 57.4 | 10.4 | 31.7 | 11.2 | 70.1
Cc1ccc(C(=O)c2oc3ccc4c(C)cc(=O)oc4c3c2C)cc1 | 45.1 | > 100 | 2.66 | > 100 | 7.7 | > 100 | 5.78 | > 100 | 1.41 | 20.1 | 5.96 | > 100 | 10.1 | > 100 | 10.4 | > 100 | > 100 | > 100 | 35.9 | > 100
CCN(CC)c1ccc(N=Nc2ccc(-c3nc4cccnc4o3)cc2)cc1 |  | > 100 |  | > 100 |  | > 100 |  | > 100 |  | > 100 |  | > 100 |  | > 100 |  | > 100 |  | > 100 |  | > 100
COc1ccc(-c2c(C3=NCCN3)nnn2-c2ccccc2)cc1 |  | > 100 |  | > 100 |  | > 100 |  | > 100 |  | > 100 |  | > 100 |  | > 100 |  | > 100 |  | > 100 |  | > 100
COc1ccc(/C=C/c2cc(OC)c(OC)c(OC)c2)cc1NC(=O)/C=C/c1ccc(F)cc1 | 4.73 | > 100 | 3.32 | > 100 | 2.1 | > 100 | 2.11 | > 100 | 2.88 | 7.86 | 4.29 | > 100 | 0.0352 |  | 5.56 | > 100 | 2.99 | > 31.1 | 3.02 | > 100
C=CCc1cc2cccc(OC)c2oc1=O |  | > 100 |  | > 100 |  | > 100 |  | > 100 |  | > 100 |  | > 100 |  | > 100 |  | > 100 |  | > 100 |  | > 100
CC1=CSC2=NC(c3ccc(Cl)c(Cl)c3)=CC(c3ccc(Cl)cc3)N12 (centres undefined) | > 100 | > 100 | > 100 | > 100 | > 100 | > 100 | > 100 | > 100 | > 100 | > 100 | > 100 | > 100 | > 100 | > 100 | > 100 | > 100 | > 100 | > 100 | > 100 | > 100
CCCCC#COP(=O)(OCC)OCC |  | > 100 |  | > 100 |  | > 100 |  | > 100 |  | > 100 |  | > 100 |  | > 100 |  | > 100 |  | > 100 |  | > 100
CCN(CC)CCC1CC/C(=C\c2ccc(OC)cc2)C1=O (centres undefined) |  | > 100 |  | 34.7 |  | > 100 |  | > 100 |  | > 100 |  | > 100 |  | > 100 |  | > 100 |  | > 100 |  | 77.6
COc1cc2c(cc1C)NC(=O)/C2=C\c1cc(OC)c(OC)c(OC)c1 | 93.7 | > 100 | 37.3 | > 100 | > 100 | > 100 | > 100 | > 100 | 48.4 | > 100 | 32.4 | > 100 | 31.1 | > 100 | > 100 | > 100 | 8.18 | 32.1 | 91.2 | > 100
C=CC(=O)N1CCCC(n2nc(-c3ccc(Oc4ccccc4)cc3)c3c(N)ncnc32)C1 (centres undefined) | 0.0615 | 3.94 | 2.36 | 14.6 | 6.57 | 31.2 | 0.107 | 10.6 | 6.73 | 21 | 1.86 | 16.6 | 0.124 | 2.08 | 2.3 | 16.1 | 8.02 | 42.6 | 6.82 | 20.5
CC1(C)C=CC[C@]2(C)[C@H]3CC[C@@H]4[C@H]5[C@H](C(=O)/C=C/c6cccnc6)CC[C@]5(CO)CC[C@@]4(C)[C@]3(C)CC[C@@H]12 | 1.81 | 3.26 | 1.23 | 2.55 | 0.843 | 5.35 | 1.06 | 2.33 | 1.5 | 2.87 | 1.64 | 3.15 | 1.37 | 2.72 | 1.07 | 2.45 | 0.56 | 5.34 | 1.39 | 2.91
O=C1c2cc(Br)ccc2-c2c1c1ccc([N+](=O)[O-])cc1c(=O)n2CCCCl | 13.8 | > 57.2 | 0.0264 | 1.08 | < 0.0289 | 0.647 | < 0.0285 | 2.73 | 0.182 | 3.31 | 0.659 | 2.26 | 2.2 | 19.4 | 0.0347 | 2.2 | < 0.01 | 0.245 | 0.287 | 2.85
CC#CC(O)(C(=O)OC1CCCN(C)C1)C1=CC=CCC1 (centres undefined) |  | > 100 |  | > 100 |  | > 100 |  | > 100 |  | > 100 |  | > 100 |  | > 100 |  | > 100 |  | > 100 |  | > 100
COC(=O)CCC/C=C\C[C@H]1C=CC(=O)/C1=C/C[C@@H](O)CCc1cccc(C(F)(F)F)c1 | 4.49 | 12.4 | 2.16 | 5.48 | 2.85 | 14 | 3.89 | 14.7 | 2.9 | 9.24 | 2.46 | 5.57 | 5.93 | 18.2 | 4.2 | 16.9 | 1.09 | 12 | 2.48 | 7.49
Nc1nc(-c2cccc([N+](=O)[O-])c2)c(Br)c(=O)[nH]1 |  | > 100 |  | > 69.7 |  | > 100 |  | > 100 |  | > 82 |  | > 100 |  | > 100 |  | > 100 |  | > 100 |  | > 71.4
CC[N+](CCCCCCCCCC[N+](CC)(c1ccccn1)c1ccccn1)(c1ccccn1)c1ccccn1 | 3.65 | 24.5 | 0.915 | 7.34 | 0.267 | 3.57 | 2.61 | 9.92 | 1.72 | 14.1 | 3.76 | 66.2 | 1.02 | 5.58 | 0.431 | 11 | 1.05 | 8.78 | 0.745 | 12.9
CCCCNc1nc(NC(C)(C)C)nc(NC(C)(C)C)n1 | 52.6 | > 100 | 3.25 | > 100 | 1.4 | > 100 | 5.55 | > 100 | 16.9 | > 100 | 30.7 | > 100 | 2.98 | 50.4 | 3.1 | > 100 | 3.18 | > 100 | 81.3 | > 100
COc1cc(-c2cnn(C)c2)ccc1Nc1ncc2ccnc(N[C@@H](C)C(C)(C)C)c2n1 | > 79.9 | > 100 | > 100 | > 100 | > 100 | > 100 | > 100 | > 100 | > 57.3 | > 100 | > 31.6 | > 100 | > 100 | > 100 | > 100 | > 100 | > 100 | > 100 | > 100 | > 100
CN1CCN(Cc2ccc(NC(=O)c3cncc(C#Cc4cnc(N)c5ccc(F)cc45)c3)cc2C(F)(F)F)CC1 | 2.44 | 6.68 | 4 | 8.48 | 1.27 | 26.2 | 1.1 | 4.57 | 2.03 | 6.13 | 3.95 | 9.99 | 0.902 | 3.92 | 1.2 | 4.89 | 0.865 | 16.4 | 4.08 | 8.63

From PubChem BioAssay (NCI)
